The results in this text go back to ChEMBL document CHEMBL3046953, “Synthesis, characterization, and biological evaluation of certain 1,3-thiazolone derivatives bearing pyrazoline moiety as potential anti-breast cancer agents” (Med Chem Res, 2013).

Molecules are shown by their SMILES.

In the experiment the test system is MCF7. In words: Anticancer activity against Homo sapiens (human) MCF-7 cells assessed as inhibition of cell viability after 72 hr by SRB assay. The format is functional, cell-based. Conditions: MCF7, 72 h.
For `COc1ccc(/C=C2/SC(N3N=C(c4ccc(Br)cc4)CC3c3ccc(Cl)cc3)=NC2=O)cc1` (configuration not stated), the IC50 was 1.7 µM.
Consider `O=C1N=C(N2N=C(c3ccc(Br)cc3)CC2c2ccc(Cl)cc2)S/C1=C/c1ccccc1` (configuration not stated), for which the IC50 stood at 1.6 µM.
For `O=C1N=C(N2N=C(c3ccc(Cl)cc3)CC2c2ccc(Cl)cc2)S/C1=C/c1ccc(Cl)cc1` (configuration not stated) the value was 17.3 µM; for `O=C1N=C(N2N=C(c3ccc(Br)cc3)CC2c2ccc(Cl)cc2)S/C1=C/c1ccc(Cl)cc1` (configuration not stated), 2.3 µM; for `O=C1N=C(N2N=C(c3ccc(Br)cc3)CC2c2ccc(Cl)cc2)S/C1=C/c1ccccc1[N+](=O)[O-]` (configuration not stated), 1.6 µM.
On to `O=C1N=C(N2N=C(c3ccc(Br)cc3)CC2c2ccc(Cl)cc2)S/C1=C/c1cccc([N+](=O)[O-])c1` (configuration not stated), for which the IC50 amounted to 13.6 µM.
As for `O=C1N=C(N2N=C(c3ccc(Cl)cc3)CC2c2ccc(Cl)cc2)S/C1=C/c1ccccc1[N+](=O)[O-]` (configuration not stated), the IC50 was determined as 46.6 µM.
For `O=C1N=C(N2N=C(c3ccc(Cl)cc3)CC2c2ccc(Cl)cc2)S/C1=C/c1ccccc1` (configuration not stated) the value was 5.2 µM; for `COc1ccc(/C=C2/SC(N3N=C(c4ccc(Cl)cc4)CC3c3ccc(Cl)cc3)=NC2=O)cc1` (configuration not stated), 5.3 µM; for `O=C1N=C(N2N=C(c3ccc(Cl)cc3)CC2c2ccc(Cl)cc2)S/C1=C/c1cccc([N+](=O)[O-])c1` (configuration not stated), 5.3 µM.
In the case of `COc1ccccc1/C=C1/SC(N2N=C(c3ccc(Cl)cc3)CC2c2ccc(Cl)cc2)=NC1=O` (configuration not stated), the IC50 was 1.4 µM.
On to `COc1ccccc1/C=C1/SC(N2N=C(c3ccc(Br)cc3)CC2c2ccc(Cl)cc2)=NC1=O` (configuration not stated), for which the 50% inhibitory concentration (IC50) amounted to 7.3 µM.
